Data from patent US20260347364A1, “PYRAZOLO[4,3-F]QUINAZOLINE DERIVATIVES AS MODULATORS OF G12D MUTANT KRAS USEFUL FOR THE TREATMENT OF CANCER” (JAZZ PHARMACEUTICALS IRELAND LTD., priority 2023, published 2026).

Legend:
KRAS G12D = molecular target: T1, KRAS G12D (Homo sapiens, UniProt P01116, G12D); experiment: HTRF nucleotide exchange assay, KRAS G12D; assay type: biochemical; details: class symbols; for IC50: HTRF nucleotide exchange assay (NEA)
T1 construct: aa1-188 KRAS WT, HRAS WT, NRAS WT, or KRAS containing the G12D

KRAS WT = molecular target: T2, KRAS WT (Homo sapiens, UniProt P01116); experiment: HTRF nucleotide exchange assay, KRAS WT; assay type: biochemical; details: class symbols; for IC50: HTRF nucleotide exchange assay (NEA)
T2 construct: aa1-188 KRAS WT

IC50 (KRAS G12D) [nM] | IC50 (KRAS WT) [nM] | KRAS^G12D NEA (KRAS G12D) | KRAS^WT NEA (KRAS WT) | Compound
≤ 10 | 10 to 100 | – | – | CCc1c(F)ccc2cc(O)cc(-c3cc4nc(OC[C@@]56CCCN5C[C@H](F)C6)nc(N5CCCn6nc(CN(C)C)cc6C5)c4c4cn(C)nc34)c12 [Example 102, 4-[9-[2-[(dimethylamino)methyl]-4,6,7,8-tetrahydropyrazolo[1,5-a][1,4]diazepin-5-yl]-2-methyl-7-[[(2R,8S)-2-fluoro-1,2,3,5,6,7-hexahydropyrrolizin-8-yl]methoxy]pyrazolo[4,3-f]quinazolin-4-yl]-5-ethyl-6-fluoro-naphthalen-2-ol]
≤ 10 | ≤ 10 | – | – | CCc1c(F)ccc2cc(O)cc(-c3c(F)c4nc(OC[C@@]56CCCN5C[C@H](F)C6)nc(N5CCOC[C@@](C)(O)C5)c4c4cn(C)nc34)c12 [Example 109, (6S)-4-[4-(8-ethyl-7-fluoro-3-hydroxy-1-naphthyl)-5-fluoro-2-methyl-7-[[(2R,8S)-2-fluoro-1,2,3,5,6,7-hexahydropyrrolizin-8-yl]methoxy]pyrazolo[4,3-f]quinazolin-9-yl]-6-methyl-1,4-oxazepan-6-ol]
10 to 100 | ≤ 10 | – | – | CCc1c(F)ccc2cc(O)cc(-c3c(F)c4nc(OC[C@@]56CCCN5C[C@H](F)C6)nc(N5CCC(C#N)CC5)c4c4cn(C)nc34)c12 [Example 111, 1-[4-(8-ethyl-7-fluoro-3-hydroxy-1-naphthyl)-5-fluoro-2-methyl-7-[[(2R,8S)-2-fluoro-1,2,3,5,6,7-hexahydropyrrolizin-8-yl]methoxy]pyrazolo[4,3-f]quinazolin-9-yl]piperidine-4-carbonitrile]
≤ 10 | ≤ 10 | – | – | CCc1c(F)ccc2cc(O)cc(-c3cc4nc(OC[C@@]56CCCN5C[C@H](F)C6)nc(N5CCCn6nc(C(=O)N(C)C)nc6C5)c4c4cn(C)nc34)c12 [Example 112, 8-[4-(8-ethyl-7-fluoro-3-hydroxy-1-naphthyl)-2-methyl-7-[[(2R,8S)-2-fluoro-1,2,3,5,6,7-hexahydropyrrolizin-8-yl]methoxy]pyrazolo[4,3-f]quinazolin-9-yl]-N,N-dimethyl-5,6,7,9-tetrahydro-[1,2,4]triazolo[1,5-a][1,4]diazepine-2-carboxamide]
100 to 10000 | 10 to 100 | – | – | CCc1c(F)ccc2cc(O)cc(-c3cc4nc(OC[C@@]56CCCN5C[C@H](F)C6)nc(N5CCC(CO)CC5)c4c4cn(C)nc34)c12 [Example 113, 5-ethyl-6-fluoro-4-[9-[4-(hydroxymethyl)-1-piperidyl]-2-methyl-7-[[(2R,8S)-2-fluoro-1,2,3,5,6,7-hexahydropyrrolizin-8-yl]methoxy]pyrazolo[4,3-f]quinazolin-4-yl]naphthalen-2-ol]

Further lines, the molecule ahead of its results:

Compound | IC50 (KRAS G12D) [nM] | IC50 (KRAS WT) [nM] | KRAS^G12D NEA (KRAS G12D) | KRAS^WT NEA (KRAS WT)
CCc1c(F)ccc2cc(O)cc(-c3cc4nc(OC[C@@]56CCCN5C[C@H](F)C6)nc(N5CCCn6nc(C(=O)N(C)C)c(F)c6C5)c4c4cn(C)nc34)c12 [Example 103] | ≤ 10 | ≤ 10 | – | –
CCc1c(F)ccc2cc(Cl)cc(-c3cc4nc(OC[C@@]56CCCN5C[C@H](F)C6)nc(N5CCCn6nc(C(=O)N(C)C)cc6C5)c4c4cn(C)nc34)c12 [Example 104, 5-[4-(3-chloro-8-ethyl-7-fluoro-1-naphthyl)-2-methyl-7-[[(2R,8S)-2-fluoro-1,2,3,5,6,7-hexahydropyrrolizin-8-yl]methoxy]pyrazolo[4,3-f]quinazolin-9-yl]-N,N-dimethyl-4,6,7,8-tetrahydropyrazolo[1,5-a][1,4]diazepine-2-carboxamide] | 10 to 100 | 100 to 10000 | – | –
Cn1cc2c(n1)c(-c1ncc(F)c3sc(N)c(C#N)c13)cc1nc(OC[C@@]34CCCN3C[C@H](F)C4)nc(N3CCC[C@@](C)(O)C3)c12 [Example 106, 2-amino-7-fluoro-4-[2-methyl-7-[[(2R,8S)-2-fluoro-1,2,3,5,6,7-hexahydropyrrolizin-8-yl]methoxy]-9-[(3R)-3-hydroxy-3-methyl-1-piperidyl]pyrazolo[4,3-f]quinazolin-4-yl]thieno[3,2-c]pyridine-3-carbonitrile] | – | – | D (<49% inhibition at 10 μM) | D (<49% inhibition at 10 μM)
Cn1cc2c(n1)c(-c1ncc(F)c3sc(N)c(C#N)c13)cc1nc(OC[C@@]34CCCN3C[C@H](F)C4)nc(N3CCOCC(C)(O)C3)c12 (stereo partly drawn) [Example 107, 2-amino-7-fluoro-4-[7-[[(2R,8S)-2-fluoro-1,2,3,5,6,7-hexahydropyrrolizin-8-yl]methoxy]-9-(6-hydroxy-6-methyl-1,4-oxazepan-4-yl)-2-methyl-pyrazolo[4,3-f]quinazolin-4-yl]thieno[3,2-c]pyridine-3-carbonitrile] | – | – | D (<49% inhibition at 10 μM) | D (<49% inhibition at 10 μM)
Cc1c(-c2ncc(F)c3sc(N)c(C#N)c23)c2nn(C)cc2c2c(N3CCOCC(C)(O)C3)nc(OC[C@@]34CCCN3C[C@H](F)C4)nc12 (stereo partly drawn) [Example 108, 2-amino-7-fluoro-4-[7-[[(2R,8S)-2-fluoro-1,2,3,5,6,7-hexahydropyrrolizin-8-yl]methoxy]-9-(6-hydroxy-6-methyl-1,4-oxazepan-4-yl)-2,5-dimethyl-pyrazolo[4,3-f]quinazolin-4-yl]thieno[3,2-c]pyridine-3-carbonitrile] | 100 to 10000 | 100 to 10000 | – | –
CCc1c(F)ccc2cc(O)cc(-c3c(F)c4nc(OC[C@@]56CCCN5C[C@H](F)C6)nc(N5CCOC[C@](C)(O)C5)c4c4cn(C)nc34)c12 [Example 110, (6R)-4-[4-(8-ethyl-7-fluoro-3-hydroxy-1-naphthyl)-5-fluoro-2-methyl-7-[[(2R,8S)-2-fluoro-1,2,3,5,6,7-hexahydropyrrolizin-8-yl]methoxy]pyrazolo[4,3-f]quinazolin-9-yl]-6-methyl-1,4-oxazpan-6-ol] | ≤ 10 | ≤ 10 | – | –
CCc1c(F)ccc2cc(O)cc(-c3cc4nc(OC[C@@]56CCCN5C[C@H](F)C6)nc(N5CCCC(CO)C5)c4c4cn(C)nc34)c12 (stereo partly drawn) [Example 114, 5-ethyl-6-fluoro-4-[9-[3-(hydroxymethyl)-1-piperidyl]-2-methyl-7-[[(2R,8S)-2-fluoro-1,2,3,5,6,7-hexahydropyrrolizin-8-yl]methoxy]pyrazolo[4,3-f]quinazolin-4-yl]naphthalen-2-ol] | ≤ 10 | 10 to 100 | – | –
CCc1c(F)ccc2cc(O)cc(-c3cc4nc(OC[C@@]56CCCN5C[C@H](F)C6)nc(N5CCOC(CO)C5)c4c4cn(C)nc34)c12 (stereo partly drawn) [Example 115, 5-ethyl-6-fluoro-4-[9-[2-(hydroxymethyl)morpholin-4-yl]-2-methyl-7-[[(2R,8S)-2-fluoro-1,2,3,5,6,7-hexahydropyrrolizin-8-yl]methoxy]pyrazolo[4,3-f]quinazolin-4-yl]naphthalen-2-ol] | ≤ 10 | ≤ 10 | – | –
CCc1c(F)ccc2cc(O)cc(-c3cc4nc(OC[C@@]56CCCN5C[C@H](F)C6)nc(N5CCC(C)(O)C5)c4c4cn(C)nc34)c12 (stereo partly drawn) [Example 116, 1-[4-(8-ethyl-7-fluoro-3-hydroxy-1-naphthyl)-2-methyl-7-[[(2R,8S)-2-fluoro-1,2,3,5,6,7-hexahydropyrrolizin-8-yl]methoxy]pyrazolo[4,3-f]quinazolin-9-yl]-3-methyl-pyrrolidin-3-ol] | 10 to 100 | 10 to 100 | – | –
